Key:
[1] = system: Guinea pig late asthma model; experiment: Guinea pig late asthma model (ovalbumin sensitized, respiratory function sRaw/TV); format: in vivo; details: 3 mg/kg orally one hour before antigen challenge
Procedure: Assessment of Compounds in Guinea Pig Late Asthma Model
The assessment was carried out using a compound obtained in Example 52.
Hartley male guinea pigs (commercially available from Japan SLC, Inc.) were pre-bred about 1 week after arrival, and then exposed by inhalation to 2% (w/v) ovalbumin (OA) saline in a plastic box (4 guniea pigs/box) for 5 minutes using a ultrasonic nebulizer (OMRON NE-U12, condition: maximum nebulizing amounts, maximum air volume), and sensitized (day 0). The same operation was carried out on day 7. On day 14 or 15, each guinea pig was administered 2% OA by inhalation for 5 minutes to initiate a response (challenge). […]
A determination and analysis of respiratory function were carried out according to the method of Penny A. Hutson et al. Am Rev Respir Dis 1988 137, 548-557. The respiratory function was determined before the antigen challenge (before drug administration) and 5 minutes and 1, 2, 3, 4, 5, 6, 7 and 8 hours after the antigen challenge, and wave profiles were imported using MacLab Chart v3.4 (AD Instruments) and analyzed later. […] The sRaw/TV values subtracting the former values were plotted against measured times, and each area under the curve (AUC4-8 hr) of each animal was calculated to compare each other in the range of 4 to 8 hours after the antigen challenge. […]

rat lung membrane SMBS = experiment: Receptor-binding assessment test using rat lung membranes ([125I]-iodocyanopindolol ligand binding assay); details: 1 μM test compound; ratio of inhibiting specific binding of [125I]-iodocyanopindolol to rat lung membrane SMBS
Procedure: Receptor-Binding Assessment Test of Compounds Using Rat Lung Membranes
The assessment test was carried out according to the method of Sugasawa, T. et al., J. Biol. Chem., 272, 21244-21252 (1997).
Preparation of Rat Lung Membranes
Lung taken out from SD male rat (7-week old under test, Charles River Laboratories Japan, Inc.) was removed trachea and blood vessels to shred and washed with iced tris-saline buffer (10 mM tris hydrochloric acid-154 mM sodium chloride, pH7.4). The resultant was homogenized by Hiscotron with ice-cold tris-saline buffer containing a homogenization buffer (1 mM ethylenediaminetetraacetic acid (EDTA), 1 mM 4-(2-aminoethyl)benzenesulfonyl fluoride (AEBSF), 5 μg/ml aprotinin, 5 μg/ml leupeptine) (maximum rate: 1 minute). The supernatant after low-speed centrifugation (1500×g, 20 minutes, 4° C.) was ultracentrifuged (100000×g, 20 minutes, 4° C.), and the pellet was suspended in tris-saline buffer to store at −80° C. The protein concentrations were determined by Bio-Rad Protein Assay Kit using bovine serum albumin (BSA) as a standard.
To each well in protein-nonabsorptive round-bottom 96-well assay plate (commercially available from Iwaki Glass Co., Ltd.) were added tris-saline buffer (200 μl) containing 1 nM [^125I]-iodocyanopindolol (commercially available from Amersham plc), 10 μM serotonine, 20 μm dl-propranolol, 10 μM phentolamine, 1.1 mM ascorbic acid and 100 μg lung membrane, and the mixture was pipetted to combine and then incubated at 37° C. for 30 minutes. The test compounds were dissolved in 100% dimethyl sulfoxide solution, and thereto was added 2 μl (final DMSO concentration: 1%). In order to calculate nonspecific binding amounts, to the mixture was added L-threo-3-(3,4-dihydroxyphenyl)-N-[3-(4-fluorophenyl)propyl]serine pyrrolidine amide at 100 μM of the final concentration as an alternative to the test compounds. During this time, 100 μl of 0.3% polyethyleneimine (PEI)/tris-saline buffer was added to MultiScreen plate (96-well B glass fiber, Millipore Cat. No. MAFB NOB10), and incubated for over 30 minutes. The resultant was filtered with aspiration (aspiration by the addition of 200 μl iced tris-saline buffer) to wash, and the reaction solutions on 96-well assay plate were filtered with aspiration to wash four times on MultiScreen plate. B glass fiber filter paper at the bottom of MultiScreen plate was punched out, and γ-ray doses of [^125I]-iodocyanopindolol trapped on the filter paper were determined as binding amounts. The binding amounts in the presence of DMSO (final concentration: 1%) were total binding amounts, and the binding amounts in the presence of 100 μM L-threo-3-(3,4-dihydroxyphenyl)-N-[3-(4-fluorophenyl)propyl]serine pyrrolidine amide were nonspecific binding amounts. The values subtracted the nonspecific binding amounts from the total binding amounts were the specific binding amounts. The binding activity of a compound was calculated according to the following formula, which was shown in the ratio of inhibiting the specific binding of [^125I]-iodocyanopindolol to rat lung membrane SMBS by the test compound.

[2] = system: Corticosterone generation; experiment: Assessment test of steroid hormone synthesis inhibition (Corticosterone generation in rat adrenal gland cells); format: cell-based; details: 10 μM test article, rat adrenal cells with cAMP, 2 hours, read-out: Steroid Synthesis Inhibition Rate (%) (10 μM)
Source text: Assessment Test of Steroid Hormone Synthesis Inhibition
• Cell Strainer (BD Falcon®) • Cell Titer-Glo® (Promega) • Collagenase from Clostridium histolyticum (Sigma-Aldrich) • Corticosterone EIA kit (Cayman) • Dimethylsulfoxide (referred to as DMSO hereinafter) (nacalai tesque) • D-MEM (GIBCO) • DNase I (Invitrogen) • Fetal Bovine Serums (referred to as FBS hereinafter) (Bioflud) • Multiple well plates for adhesive cell culture, 96 wells (IWAKI) • N^6,2′-O-Dibutyryladenosine 3′,5′-cyclic monophosphate sodium salt (referred to as cAMP hereinafter) (Sigma) • Penicillin Streptomycin Mixed Solution (nacalai tesque)
Control examples 1 to 4: Control example 1 was Example 350 of Patent Document 2. Control examples 2 to 4 were synthesized according to Patent Document 2.
Adrenal glands were taken out from rats, and removed excess connective tissues, adiposes and membranes in D-MEM. The adrenal glands were transferred to polytubes, and quickly segmentalized with scissors. Thereto was added D-MEM containing 1 mg/mL collagenase and 0.25 μL DNase 1, and then the mixture was shaken at 37° C. for 10 minutes in 80 times/minute. Then, the mixture was pipetted by 1 mL truncated pipette tip, and shaken again under the same condition. After 10 minutes, the mixture was pipetted again by 1 mL pipette tip, and the cell suspension was filtered through metal mesh. The filtrate was centrifuged at 4° C. for 5 minutes in 500 g. The supernatant was removed, and thereto was added a mixed solution of 0.16 M NH4Cl and 0.17 M Tris-HCl in 3 mL. The mixture was let stand on ice for 5 minutes, and then centrifuged under the same condition. Then, the supernatant was removed and then thereto was added D-MEM. The cell suspension was prepared and centrifuged under the same condition. Again, the supernatant was removed and then thereto was added D-MEM to give a cell suspension. The cell suspension was filtered by Cell Strainer (BD Falcon®). The filtrate was centrifuged under the same condition. After the completion of the centrifugation, the supernatant was removed, and thereto was added D-MEM containing 1% Penicillin Streptomycin Mixed Solution and 10% FBS. The mixture was seeded in Multiple well plate for adhesive cell culture, 96 wells (IWAKI) in 10000 cells/well, and incubated at 37° C. overnight in CO2 incubator.
Test article concentrations were prepared in DMSO to 2000 μM, and D-MEM containing 20 μM test article in D-MEM was prepared.
Cell-seeded plate was incubated overnight, and then the medium was removed and thereto was added D-MEM containing 20 μM test article in 50 μL/well. Then, to the mixture was promptly added D-MEM containing 20 μM cAMP in 50 μL/well so that the final concentration of the test article was 10 μM. After the addition of 2 types of D-MEM, the mixture was incubated at 37° C. for 2 hours in CO2 incubator. After 2 hours, the supernatant (50 μL) of the medium was collected. For cells, the cell toxicity of the test article was assessed according to a conventional method using Cell Titer-Glo® (Promega). For the collected supernatant, the Corticosterone concentration in the supernatant was determined according to a conventional method using Corticosterone EIA kit (Cayman).
The inhibition rate of 10 μM test article to Corticosterone generation was calculated according to the following formula confirming that the cell toxicity by the test article was not recognized.

CNC(=O)NCCn1c(-c2ccc(C(=O)N3CCOCC3)cc2)cs/c1=N\c1cccc(F)c1 [Example 52, N-{2-[(2Z)-2-[(3-Fluorophenyl)imino]-4-[4-(morpholin-4-ylcarbonyl)phenyl]-1,3-thiazol-3(2H)-yl]ethyl}-N′-methylurea]
AUC4-8 hr ((sRaw/TV) · h) ([1]; 4 to 8 hours after antigen challenge): 0.427 (sRaw/TV) · h
Improvement Rate (%) ([1]; AUC4-8 hr versus control group, p<0.01 Dunnett's test): 54%
Binding Activity (%) (1 μM) (rat lung membrane SMBS): 59%
inhibition at 10 µM [2]: 0%

Reference: patent publication US20110034466A1, “NOVEL FIVE-MEMBERED RING COMPOUND” (priority 2008, published 2011)
